For four compounds, IC50 results are on record in patent US5143920A, “Substituted 4-aminoquinoline derivatives as gastric secretion inhibitors” (SmithKline Beckman Intercredit B.V., priority 1988, dated 1992).

Structures are written as SMILES.

In this test the target is T1, H^+ K^+ ATPase (Sus scrofa, UniProt P19156).
T1 construct: Lyophilised gastric vesicles were prepared from pig fundic mucosa; from tissue; host or cells: pig fundic mucosa (lyophilised gastric vesicles)
T1 sequence (P19156 2-1034 limits assumed): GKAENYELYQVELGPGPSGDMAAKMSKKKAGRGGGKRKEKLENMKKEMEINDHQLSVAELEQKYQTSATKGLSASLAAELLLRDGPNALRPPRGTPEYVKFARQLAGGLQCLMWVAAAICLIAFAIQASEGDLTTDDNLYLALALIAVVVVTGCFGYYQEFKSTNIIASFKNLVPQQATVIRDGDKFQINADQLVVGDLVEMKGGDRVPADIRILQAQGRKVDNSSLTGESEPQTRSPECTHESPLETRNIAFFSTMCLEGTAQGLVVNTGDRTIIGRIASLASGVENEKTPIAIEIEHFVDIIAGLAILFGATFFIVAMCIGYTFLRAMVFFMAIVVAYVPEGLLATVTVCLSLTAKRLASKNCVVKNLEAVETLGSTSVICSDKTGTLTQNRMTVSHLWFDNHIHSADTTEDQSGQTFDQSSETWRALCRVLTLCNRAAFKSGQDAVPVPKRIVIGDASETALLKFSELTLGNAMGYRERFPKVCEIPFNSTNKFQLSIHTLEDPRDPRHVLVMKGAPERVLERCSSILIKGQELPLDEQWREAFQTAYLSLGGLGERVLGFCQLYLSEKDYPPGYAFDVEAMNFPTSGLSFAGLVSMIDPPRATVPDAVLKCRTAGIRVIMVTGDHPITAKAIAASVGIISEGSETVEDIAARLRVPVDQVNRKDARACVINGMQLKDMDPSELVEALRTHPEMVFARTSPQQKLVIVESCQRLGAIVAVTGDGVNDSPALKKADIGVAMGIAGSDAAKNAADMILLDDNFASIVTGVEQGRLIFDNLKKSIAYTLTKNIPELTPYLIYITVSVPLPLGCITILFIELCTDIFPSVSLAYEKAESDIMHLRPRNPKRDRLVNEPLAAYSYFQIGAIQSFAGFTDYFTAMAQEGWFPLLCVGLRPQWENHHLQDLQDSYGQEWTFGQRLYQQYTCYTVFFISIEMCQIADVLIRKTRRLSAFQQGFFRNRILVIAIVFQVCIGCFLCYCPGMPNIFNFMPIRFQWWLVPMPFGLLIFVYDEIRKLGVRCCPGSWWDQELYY
T1 sequence (P18434 whole entry partner): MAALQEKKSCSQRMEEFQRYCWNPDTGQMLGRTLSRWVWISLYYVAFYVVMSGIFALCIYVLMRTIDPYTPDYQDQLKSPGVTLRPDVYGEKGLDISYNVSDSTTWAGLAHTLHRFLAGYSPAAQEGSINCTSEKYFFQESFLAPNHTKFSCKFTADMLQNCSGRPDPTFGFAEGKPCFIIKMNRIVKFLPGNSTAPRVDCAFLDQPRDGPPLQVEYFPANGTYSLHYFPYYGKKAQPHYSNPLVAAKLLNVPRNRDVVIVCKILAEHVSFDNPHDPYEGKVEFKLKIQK
The test can be described thus: K^+ -stimulated ATPase activity in lyophilised gastric vesicles (H^+ K^+ ATPase Activity). The note with it: inhibition of K^+ -stimulated ATPase activity, lyophilised gastric vesicles from pig fundic mucosa, 37° C., pH 7.0, 1 mM KCl, 2 mM Na2 ATP, 30 minutes. The test is classed as biochemical. The protocol:
The effects of a single high concentration ([…]) of a compound of structure (I) on K^+ -stimulated ATPase activity in lyophilised gastric vesicles was determined. Preferred compounds of structure (I) were also tested over a range of concentrations to determine IC50 values.
Lyophilised gastric vesicles were prepared from pig fundic mucosa after the method of Keeling et. al. (Biochem. Pharmacol, 34, 2967, 1985).
K^+ -stimulated ATPAse activity was determined at 37° C. in the presence of the following: 10 mM Pipes/Tris buffer pH 7.0, 2 mM MgSO4, 1 mM KCl, 2 mM Na2 ATP and […] lyophilised gastric vesicles. After incubation for 30 minutes, the inorganic phosphate hydrolysed from ATP was determined by the method of Yoda and Hokin (Biochem. Biophys, Res. Commun. 40, 880, 1970).
Compounds of structure (I) were dissolved in dimethylsulphoxide which up to the highest concentration used had no effect on K^+ -stimulated ATPase activity.
The effect of the highest concentration of each compound of structure (I) on the recovery of a standard amount of inorganic phosphate was also determined.
`CCOC(=O)c1cnc2c(OC)cccc2c1Nc1ccc(O)cc1C` [Compound 9, Ethyl 8-methoxy-4-(4-hydroxy-2-methylphenylamino)-quinoline-3-carboxylate] returned a 50% inhibitory concentration (IC50) of 0.08 µM.

`COc1cccc2c(Nc3ccc(O)cc3C)c(C(=O)C(C)C)cnc12` [Compound 12, 3-isobutyryl-4-(4-hydroxy-2-methylphenylamino)-8-methoxyquinoline] displayed an IC50 of 0.16 µM.

`CCCC(=O)c1cnc2ccc(O)cc2c1Nc1ccc(O)cc1C` [Compound 16, 3-butyryl-4-(4-hydroxy-2-methylphenylamino)-6-hydroxyquinoline] yielded an IC50 of 0.07 µM.

The compound `CCCC(=O)c1cnc2c(OC)cc(O)cc2c1Nc1ccc(O)cc1C` [Compound 17, 3-butyryl-4-(4-hydroxy-2-methylphenylamino)-6-hydroxy-8-methoxyquinoline] showed an IC50 of 1.3 µM.

For orientation: IC50 means the concentration that gives 50% inhibition. Low values mean inhibition by little substance, high ones a need for much substance.
